The record followed here is US20240269125A1, “METHODS OF TREATING CORONAVIRUS INFECTIONS BY CO-ADMINISTERING AN FKBP LIGAND AND AN ANTIVIRAL AGENT” (priority 2020, published 2024).

The nature of data set [1]: in vitro. The following applies: African green monkey.
The test system of data set [2] is SARS CoV-2 (USA-WA1/2020). Put plainly: organism not typed. The class given is cell-based.
The nature of data set [3]: in vitro. Particulars: African green monkey, TC50, Table 1, Example 6.
The subject of data set [4] is SARS CoV-2 (USA-WA1/2020). In words: organism not typed. The class given is cell-based. The following applies: for reduction in SARS COV-2 virus: Example 6.
The next data set relates to Vero E6 cells. The following applies: Table 1, Example 6; 50% cell death in absence of virus, day 4.
Data set [5] has as its system SARS COV-2 (USA_WA1/2020). The class given is cell-based. The following applies: Example 10; remdesivir alone up to 6,666.667 nM; FK1706 alone up to 60,000 nM.
The mark [6] stands for this setting: TC50, Table 2, Example 7, 50% cell death in absence of virus, day 3.
Where [7] appears, read: TC50, Table 4, Example 9, single conc. (sub-therapeutic antiviral alone).
Setting [8] is: Example 9, antiviral alone at sub-therapeutic level (molnupiravir 0.3 μM; remdesivir 3 μM).

A word on the EC50: it is the concentration that produces a half-maximal response.

Like-named read-outs stand apart in the source and are kept apart here. A value given as a limit tells only on which side of the number the result lay.

As to `CCC(CC)COC(=O)[C@H](C)N[P@](=O)(OC[C@H]1O[C@@](C#N)(c2ccc3c(N)ncnn23)[C@H](O)[C@@H]1O)Oc1ccccc1` [Remdesivir], the CC50 in the data set “in vitro [1]” (setting [6]) is over 100 µM; in “in vitro [1]” (TC50, Table 2, Example 7, single conc. (sub-therapeutic antiviral alone)), over 3 µM; in the data set “in vitro [1]” (setting [7]), over 0.3 µM; in “in vitro [3]” (50% cell death in absence of virus, day 4), over 100 µM; in “in vitro [3]” (single conc. (sub-therapeutic antiviral alone)), over 3 µM. The “reduction in SARS COV-2 virus” value in data set [2] (Example 7, antiviral alone at sub-therapeutic level (remdesivir 3 μM; M128533 1 μg/mL)) is 2-19%; in data set [2] (setting [8]), 20-30%; in data set [4] (antiviral alone at sub-therapeutic level (remdesivir 3 μM; M128533 1 μg/mL)) it was 5-14%. In addition, the EC50 in data set [2] (Table 2, Example 7, single conc. (sub-therapeutic antiviral alone)) is over 3 µM; in data set [2] (Table 4, Example 9, single conc. (sub-therapeutic antiviral alone)), over 0.3 µM; in data set [2] (Vero C1008, 72 h, Table 2, Example 7, Vero E6, concentration inhibiting CPE by 50%, day 3), 7.31 µM; in data set [4], over 3 µM; in data set [4] (Vero C1008, 96 h) it was 3.63 µM.
With `CCC(C)(C)C(=O)C(=O)N1CCC[C@H]1C(=O)O` [GPI-1485], the CC50 in “in vitro [1]” (TC50, Table 4, Example 9, day 3) was over 320 µM. Besides, the “reduction in SARS COV-2 virus” value in data set [2] (Example 9, GPI-1485 40-320 μM, alone or co-administered with fixed antiviral) is reported as 0-6%. Also, the EC50 in data set [2] (Vero C1008, 72 h, Table 4, Example 9, Vero E6, day 3) is over 320 µM.
In the data set “in vitro [1]” (setting [6]), `O=C(C(=O)N1CCCC[C@H]1C(=O)NCCCc1ccccc1)c1ccccc1` [ElteN378] displayed a CC50 of over 30 µM. The “reduction in SARS COV-2 virus” value in data set [2] (Example 7, ElteN378 0.12-30 μM, alone or co-administered with fixed antiviral) is 0-7%. The EC50 in data set [2] (Vero C1008, 72 h, Table 2, Example 7, Vero E6, concentration inhibiting CPE by 50%, day 3, read-out: EC50) is over 30 µM.
For the molecule `CO[C@H]1C[C@@H](C)C/C(C)=C/[C@@H](CC(C)=O)C(=O)C[C@H](O)[C@@H](C)C(/C(C)=C/[C@@H]2CC[C@@H](O)[C@H](OC)C2)OC(=O)C2CCCCC2C(=O)C(=O)[C@]2(O)O[C@H]1[C@@H](OC)C[C@H]2C` (some centres unmarked) [FK1706], in the data set on Vero E6 cells, the TC50 was over 90 µM. In addition, in data set [5], the “antiviral activity as single agent” value is “no significant antiviral activity”. In “in vitro [1]” (TC50, Table 3, Example 8, day 3), this molecule had a CC50 of over 90 µM. Also, the “reduction in SARS COV-2 virus” value was 0-10% in data set [2] (Example 8, FK1706 alone 2.85-90 μM) and 0-7% in data set [4] (FK1706 11-90 μM, alone or co-administered with fixed antiviral). In addition, the EC50 is over 90 µM in data set [2] (Vero C1008, 72 h, Table 3, Example 8, Vero E6, day 3, read-out: EC50) and over 90 µM in data set [4] (Vero C1008, 96 h, Table 1, Example 6, Vero E6, concentration inhibiting CPE by 50%, day 4, read-out: EC50).
For the molecule `CC(C)C(=O)OC[C@H]1O[C@@H](n2ccc(=NO)[nH]c2=O)[C@H](O)[C@@H]1O` [Molnupiravir, ((2R,3S,4R,5R)-3,4-dihydroxy-5-(4-(hydroxyimino)-2-oxo-3,4-dihydropyrimidin-1(2H)-yl)tetrahydrofuran-2-yl)methyl isobutyrate], the CC50 in the data set “in vitro [1]” (TC50, Table 3, Example 8, single conc. (0.3 μM molnupiravir alone)) is over 0.3 µM; in “in vitro [1]” (setting [7]), over 0.3 µM. Moreover, the “reduction in SARS COV-2 virus” value in data set [2] (Example 8, molnupiravir alone 0.3 μM) is listed as 4-13%; in data set [2] (setting [8]), 4-13%. Further, the EC50 was over 0.3 µM in data set [2] (Table 3, Example 8, single conc. (0.3 μM molnupiravir alone), read-out: EC50) and over 0.3 µM in data set [2] (Table 4, Example 9, single conc. (sub-therapeutic antiviral alone), read-out: EC50).
